# Test results from US11167012B2, “Peptide inhibition of CCR3-mediated diseases or conditions” (The Board of Trustees of the University of Illinois, priority 2015, dated 2021).
# Several values for one entry are separate records, joined by “and”; a condition that tells them apart may be missing. Equal entries are not always repeated. Where a SMILES comes first, the peptide text is derived from it. The star is where a group is joined. X1 = NC(=O)CCOCCOCCOCCOCCOCCOCCOCCOCCOCCOCCOCCOCCOCCOCCOCCOCCOCCOCCOCCOCCOCCOCCOCCOCCOCCOCCOCCOCCN*
# What was measured:
# [1] = test system: eosinophil recruitment into the lung airspaces; assay: Triple antigen (DRA) allergic mouse asthma model; format: in vivo
# Experimental: Treatment of mice with CCR3 R3-2-1 peptide nanoparticles, scrambled R3-2-3 peptide nanoparticles or vehicle controls was administered i.v. by retro-orbital injection starting on day 11, one day before intranasal DRA allergen challenges on days 12-14 to assess its effect on inhibiting the recruitment of eosinophils into the lung airspaces and airways. Blood, bronchoalveolar lavage (BAL) fluid and lung tissue were harvested on day 15.
# In the triple antigen driven allergic mouse model, mice are sensitized and airway-challenged with a combination of aeroallergens including Dust mite, Ragweed and Aspergillus sp. (DRA; Goplen, et al. (2009) J. Allergy Clin. Immunol. 123:925-932). This model recapitulates many of the pathologic features of human asthma, including eosinophil recruitment into the lung and airspaces, eosinophil degranulation, increased expression of Th2 cytokines, airway hyperreactivity (AHR), and airway remodeling (goblet cell metaplasia and mucus overproduction), and airway smooth muscle hyperplasia and subepithelial fibrosis. Using this model, the effectiveness of R3-2-1 in blocking allergen-induced eosinophil recruitment into the airways and development of airway pathologies in mice was evaluated. It was determined whether systemic (i.v.) administration of R3-2-1 nanoparticles has the capacity to inhibit eotaxin-mediated eosinophil recruitment into the airways. Mice subjected to the triple antigen (DRA) protocol were treated with R3-2-1, scrambled peptide (R3-2-3) and vehicle controls via i.v. administration following antigen sensitization, 24 hours prior to the first allergen challenge on Day 11 of the protocol (FIG. 7), and for i.v. routes, repeated before each subsequent allergen challenge.
# [2] = molecular target: T1, CCR3 (Homo sapiens, UniProt P51677); assay: Chemotaxis assay (Transwell), AML14.3D10-CCR3 cells; format: cell-based; parameters: host or cells: AML14.3D10-CCR3 (eosinophilic myelocytic cell line, kept under G418); details: for IC90: 4 hours
# T1 sequence (P51677 1-355): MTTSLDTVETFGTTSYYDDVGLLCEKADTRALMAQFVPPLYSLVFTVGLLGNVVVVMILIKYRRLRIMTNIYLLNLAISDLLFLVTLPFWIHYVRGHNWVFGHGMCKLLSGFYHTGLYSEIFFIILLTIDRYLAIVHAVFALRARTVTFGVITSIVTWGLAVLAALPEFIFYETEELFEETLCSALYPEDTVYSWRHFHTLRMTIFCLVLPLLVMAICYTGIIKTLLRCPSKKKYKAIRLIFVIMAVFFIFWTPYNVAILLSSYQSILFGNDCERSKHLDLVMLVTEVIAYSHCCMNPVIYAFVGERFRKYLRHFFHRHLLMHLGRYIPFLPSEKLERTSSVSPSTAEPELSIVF
# Experimental: AML14.3D10-CCR3 (ATCC, Manassas, Va.; Daugherty, et al. (1996) J. Exp. Med. 183:2349-2354) were maintained in RPMI-1640 supplemented with 10% FBS, 1.5 g/L sodium bicarbonate, 4.5 g/L glucose, 2 mM L-glutamine, 10 mM HEPES, 1 mM sodium pyruvate, 50 μM β-mercaptoethanol, and 2 mg/ml G418 in a humidified incubator with 5% CO2 at 37° C.
# Cell migration was determined using a 96-well […]® system (Corning, Tewksbury, Mass.). […] The two chambers were separated by a polycarbonate filter with 5 μm pores. For AML14.3D10-CCR3 cells, 2×10^5 cells/well were resuspended in RPMI-1640+0.1% BSA and allowed to migrate for 4 hours at 37° C. For blood eosinophils, 1×10^5 cells/well were resuspended in X-VIVO 10+0.5% BSA and allowed to migrate for 3 hours at 37° C. Migrated cells were counted using a Beckman QUANTA SC flow cytometer. All experiments were performed in duplicate. Checkerboard analysis was done to distinguish chemotaxis from chemokinesis.
# Primary eosinophils and the stable CCR3+eosinophilic myelocytic cell line, AML14.3D10-CCR3 (Daugherty, et al. (1996) J. Exp. Med. 183:2349-2354) undergo CCR3-mediated chemotaxis induced by multiple chemokines including eotaxin/CCL11, RANTES/CCL5, MCP-4/CCL13, and MEC/CCL28 (Daugherty, et al. (1996) J. Exp. Med. 183:2349-2354; Pan, et al. (2000) J. Immunol. 165:2943-2949).
# [3] = Dynamic light scattering of peptide solution; format: physicochemical; details: aqueous environment; 0.4 mg/ml in PBS
# Description: As indicated herein, the CCR3 peptide analog self-assembles in aqueous medium into highly homogenous nanoparticles. Dynamic light scattering analyses indicate that the radius of the instant nanoparticles is in the range of 1 to 100 nm, more specifically about 8 nm (FIG. 1). Based upon the size and composition, the nanoparticles facilitate translocation of the peptide through the plasma membrane and protect the peptide from degradation in the blood/serum or other body fluids. Accordingly, this invention also provides a nanoparticle composition containing the CC3 peptide analog as well as methods of using the nanoparticle composition to antagonize CCR3 and in the treatment of inflammatory diseases such as asthma, and eosinophilic esophagitis.
smiles,measurement,setting,value
CC[C@H](C)[C@H](NC(=O)[C@H](Cc1c[nH]c2ccccc12)NC(=O)[C@H](Cc1ccccc1)NC(=O)[C@@H]1CCCN1C(=O)[C@H](CC(C)C)NC(=O)[C@@H](NC(=O)[C@@H](NC(=O)[C@H](CC(C)C)NC(=O)[C@H](Cc1ccccc1)NC(=O)[C@H](CC(C)C)NC(=O)[C@@H](N)CC(C)C)C(C)C)[C@@H](C)O)C(=O)N[C@@H](Cc1c[nH]cn1)C(=O)N[C@@H](Cc1ccc(O)cc1)C(=O)N[C@H](C(=O)N[C@@H](CCCNC(=N)N)C(=O)NCC(=O)N[C@@H](Cc1c[nH]cn1)C(=O)N[C@@H](CC(N)=O)C(=O)N[C@@H](Cc1c[nH]c2ccccc12)C(=O)N[C@H](C(=O)N[C@@H](Cc1ccccc1)C(=O)NCC(=O)N[C@@H](Cc1c[nH]cn1)C(=O)N[C@@H](CC(=O)O)C(=O)N[C@@H](CC(=O)O)C(=O)N[C@@H](CC(=O)O)C(=O)NCCOCCOCCOCCOCCOCCOCCOCCOCCOCCOCCOCCOCCOCCOCCOCCOCCOCCOCCOCCOCCOCCOCCOCCOCCOCCOCCOCCOCCC(N)=O)C(C)C)C(C)C [Peptide R3-2-1] (H-LLFLVTLPFWIHYVRGHNWVFGHDDD-X1; N-terminus assumed),% Inhibition of eosinophil recruitment (BAL fluid),[1]; 3 mg/kg i.v.,19.54 ± 14.81%
same,% Inhibition of eosinophil recruitment (BAL fluid),[1]; 6 mg/kg i.v.,44.24 ± 9.33%
same,% Inhibition of eosinophil recruitment (BAL fluid),[1]; 9 mg/kg i.v.,53.03 ± 10.82%
same,% Inhibition of eosinophil recruitment (BAL fluid),"[1]; 12 mg/kg i.v., compared to vehicle and R3-2-3 controls",69.3% and 69.33 ± 4.20%
same,IC50 for inhibition of total number of eosinophils recruited into the lung airspaces,[1]; i.v.,8.16 mg/kg
same,total number of eosinophils recruited into the lung airspaces,"[1]; i.v., BAL fluid",significantly inhibits
same,tolerance to inhibition of CCL11-induced chemotaxis,"[2]; 1 μM for 24, 48 or 72 hour, CCL11 12 nM",retains it full inhibitory activity
same,chemotactic (agonist) activity by itself,"[2]; AML14.3D10-CCR3 cells, no chemokine",not chemotactic
same,"inhibition of CCR3-mediated chemotaxis induced by Eotaxin/CCL11, RANTES/CCL5 and MEC/CCL28","[2]; AML14.3D10-CCR3 cells, R3-2-1 0.4, 2 or 10 μM","inhibits chemotaxis induced by Eotaxin/CCL11, RANTES/CCL5 and MEC/CCL28 in a dose-dependent fashion"
same,IC90,"[2]; AML14.3D10-CCR3 cells, chemotaxis to CCL11/Eotaxin-1 (12 nM)",1750 ± 200 nM
same,IC90,"[2]; AML14.3D10-CCR3 cells, chemotaxis to CCL24/Eotaxin-2 (20 nM)",890 ± 120 nM
same,IC90,"[2]; AML14.3D10-CCR3 cells, chemotaxis to CCL26/Eotaxin-3 (100 nM)",780 ± 100 nM
same,hydrodynamic radius of self-assembled nanospheres,[3],approximately 8 nm
